Measured values reported in patent US20170045513A1, “METHODS OF DIAGNOSING CELIAC DISEASE USING IP-10” (ImmusanT, Inc., priority 2014, published 2017).
Non-standard residues stand in square brackets, D forms with d. pGlu = O=C1CC[C@@H](C(=O)O)N1

Assays:
Format in all cases: cell-based, human
gluten-reactive T cells [1] = experiment: 96-well plate whole blood cytokine release, IFNγ by MAGPIX multiplex bead assay; conditions: for Percent of maximal response to individual gluten peptides, IFNg: after oral gluten challenge
gluten-reactive T cells [2] = experiment: 96-well plate whole blood cytokine release, IP-10 by MAGPIX multiplex bead assay; conditions: for Percent of maximal response to individual gluten peptides, IP-10: after oral gluten challenge
gluten-reactive T cells [3] = experiment: Overnight IFNγ ELISpot assay with fresh PBMC; conditions: for Percent of maximal response to individual gluten peptides, ELISp: after oral gluten challenge
Description: HLA-DQ2.5-positive celiac disease subjects on gluten-free diet were used in this study. Blood was collected immediately before and 6 days after commencing 3-day oral gluten challenge. Whole blood or PBMCs were incubated with pools or single peptides derived from gluten or recall antigens. IFNγ and IP-10 levels were measured in plasma from the whole blood that was incubated in 96-well plates with peptides or peptide pools. Plasma cytokine/chemokine levels were measured by MAGPIX® multiplex bead assay (IFNγ and IP-10) or by ELISA (IFNγ and IP-10), and PBMC separated from the same blood sample were incubated in overnight IFNγ ELISpot assays.
Overnight IFNγ ELISpot assays (Human IFN-γ ELISpotPRO kit, transparent, ALP; Mabtech AB, #3420-2APT-10) were performed using PBMC freshly separated from heparinized blood diluted 1:1 in PBS with 2% fetal bovine serum (Stemcell Technologies #07905; Vancouver, BC, V5Z 1B3, Canada) overlaid on density gradient medium (Ficoll-Paque™ PLUS; GE Healthcare Lice Sciences #:17-1440-02) in SepMate™-50 tubes (Stemcell Technologies #15460). PBMC (8 million/mL) were resuspended in serum-free medium with gentamicin and phenol red (X-VIVO™15; Lonza, Walkersville Mass. 21793). PBMC (0.4 million/50 pt/well) and incubated with 50 μL 80% X-vivo15, 0.2% DMSO and 20% PBS in three triplicate wells (“medium only”), or with 50 μL PHA-L 20 μg/ml or peptide at 2× final concentration in 80% X-vivo15, 0.2% DMSO and 20% PBS. Peptide solutions to be added to individual ELISpot wells were prepared in 96-well U-bottom plates (60 pt/well) that were then sealed with adhesive ELISA plate cover slips before replacing the plastic lid and being frozen at −80° C. 96-well plates containing peptide solutions were thawed at room temperature for 10 min while being centrifuged at 300 g immediately prior to being added to ELISpot wells. Peptide pools and mitogen were assessed in triplicate wells, and individual peptides were assessed in duplicate wells. X-VIVO™15 (50 μL) was incubated with 80% X-vivo15, 0.2% DMSO and 20% PBS (50 μL) in triplicate wells (“no PBMC” control). A Zeiss automated ELISpot counter was used to determine spot forming units (SFU) per well (Zellnet Inc., Fort Lee, N J 07024). Laboratory staff were unaware of the arrangement of peptide solutions in ELISpot wells during assay setup and plate counting.

gluten-reactive T cells [4] = experiment: Cytokine release assays taken together (IFNγ ELISpot, whole blood IFNγ and IP-10, in-tube IFNγ ELISA); conditions: HLA-DQ2.5+ celiac disease subjects after gluten challenge
Description: Gluten peptide solutions for addition to whole blood were arranged according to standardized templates in sterile 96-well U-bottom plates (30 μL/well). Plates were sealed with adhesive ELISA plate cover slips before the plastic lid was replaced and being frozen at −80° C. Whole blood assay (WBA) “medium” (1% DMSO in 90% PBS and 9% normal saline), mitogen (PHA-L, Sigma-Aldrich #L2769; St Louis Mo.) 100 μg/ml in WBA medium, and CEF diluted to 10 μg/ml in PBS with a final concentration of 1% DMSO were frozen separately in sterile cryovials. 96-well plates and cryovials with frozen incubation solutions were shipped on dry ice to the clinical site where blood was collected and incubations performed. Solutions were thawed at room temperature for 10 min just before being added to whole blood. 96-well plates were thawed while being centrifuged at 300 g to avoid surface condensation. A multi-channel pipette was used to efficiently transfer 25 μL of peptide solutions from the original 96-well plate to corresponding wells in a fresh sterile 96-well U-bottom plate. Once incubation solutions had been added, 225 μL of whole blood was added to each well and the plate transferred to incubate for 24 h at 37° C. 5% CO2. […] Individual peptides were incubated at a final assay concentration of 51.1M. Final concentrations of individual peptides assessed in P3 was 0.05-50 μg/mL, and in P14 and P13 pools 0.025-25 μM. The P71 pool was tested at between 0.005-10 pg/mL, the highest tested concentration being the maximal possible not exceeding 0.1% DMSO. Peptide pools, mitogen, and medium only were assessed in triplicate wells, and on Day-6 individual peptides were assessed in duplicate wells. Incubations were terminated after 24 h, and 96-well plates centrifuged at 300 g for 10 min. A total of approximately 90 to 120 μL of plasma was removed from each well taking care to avoid red cell contamination, and transferred into corresponding wells of two further 96-well plates (one with 30 μL/well and the residual in the second plate). Plasmas were frozen at −80° C. and later shipped on dry ice to the central lab where IP-10 and IFNγ multiplex bead assays were performed according to manufacturer's instructions using 25 μL plasma per well (Milliplex® MAP Human Cytokine/Chemokine Magnetic Bead Panel #HCYTOMAG-60k-02; EMD Millipore Corp., Billerica, Mass. 01821) and analysed with the Luminex® MAGPIX® System xPONENT® software (Luminex Corporation, Austin Tex. 78727). Plasma cytokine levels for each assay condition were expressed as the mean analyte concentration of each of the three replicate incubations. Laboratory staff were unaware of the arrangement of peptide solutions incubated with during assay setup and plate counting.
Aliquots of PBS, P3 peptides diluted in PBS (final concentration in blood 3× 50 or CEF to a final concentration 1 μg/mL were prepared in sterile cryovials (0.11 mL/vial) and stored frozen (−80° C.) until immediately before use. P3, CEF and two PBS aliquots were drawn up in separate sterile 0.3 mL insulin syringes with attached 29G×½″ needle (Terumo, SS*30M2913; Elkton Md. 21921). P3, CEF and one PBS aliquot was injected through the stoppers of three separate QuantiFERON® NIL tubes already containing 1 mL blood, and one aliquot of PBS was injected into a QuantiFERON® MITOGEN tube already containing 1 mL blood. All four tubes containing blood and incubation solution were gently inverted ten-times and transferred to incubate at 37° C. 5% CO2. After for 24 h, tubes were centrifuged 300 g 10 min. Plasma was separated and equal volumes placed in two 1.5 mL cryovials. Frozen plasmas were transferred to the central lab where IFNγ levels were measured in triplicate 50 μL samples by ELISA (MABtech Human IFN-γ ELISA development kit HRP, 3420-1H-6; capture mAb 1-D1K). […]

In the case of “(pE)QPFPEQPEQIIPQQP-amide ([pGlu]QPFPEQPEQIIPQQP-NH2; SMILES CC[C@H](C)[C@H](NC(=O)[C@H](CCC(N)=O)NC(=O)[C@H](CCC(=O)O)NC(=O)[C@@H]1CCCN1C(=O)[C@H](CCC(N)=O)NC(=O)[C@H](CCC(=O)O)NC(=O)[C@@H]1CCCN1C(=O)[C@H](Cc1ccccc1)NC(=O)[C@@H]1CCCN1C(=O)[C@H](CCC(N)=O)NC(=O)[C@@H]1CCC(=O)N1)C(=O)N[C@H](C(=O)N1CCC[C@H]1C(=O)N[C@@H](CCC(N)=O)C(=O)N[C@@H](CCC(N)=O)C(=O)N1CCC[C@H]1C(N)=O)[C@@H](C)CC) [Peptide 12]”, the “Percent of maximal response to individual gluten peptides, IFNg” value (shortened to “Percent of maximal response … IFNg”) (gluten-reactive T cells [1]; Subject 2, Max. 116 pg/mL) is reported as 13 % of max, the “Percent of maximal response … IFNg” value (gluten-reactive T cells [1]; Subject 3, Max. 799 pg/mL) is reported as 0 % of max and the “Percent of maximal response … IFNg” value (gluten-reactive T cells [1]; Subject 4, Max. 136 pg/mL) is reported as 0 % of max. For the same substance, the “Percent of maximal response … IFNg” value (gluten-reactive T cells [1]; Subject 6, Max. 72 pg/mL) was 0 % of max, the “Percent of maximal response … IFNg” value (gluten-reactive T cells [1]; Subject 7, Max. 17 pg/mL) was 0 % of max and the “Percent of maximal response … IFNg” value (gluten-reactive T cells [1]; Subject 8, Max. 47 pg/mL) was 0 % of max. The “Percent of maximal response … IFNg” value (gluten-reactive T cells [1]; Subject 9, Max. 67 pg/mL) was 0 % of max, the “Percent of maximal response … IFNg” value (gluten-reactive T cells [1]; Subject 10, Max. 229 pg/mL) was 1 % of max and the “IFNγ WB MAGPIX % max Mean” value (gluten-reactive T cells [1]; n = 8, blood after oral gluten challenge, individual peptides 5 μM (Peptide 2* of P14, Pepscan: 10 μg/mL (5.45 μM))) was 2 % max. The “Percent of maximal response to individual gluten peptides, IP-10” value (“Percent of maximal response … IP-10” below) (gluten-reactive T cells [2]; Subject 1, Max. 2331 pg/mL) was 11 % of max, the “Percent of maximal response … IP-10” value (gluten-reactive T cells [2]; Subject 2, Max. 3646 pg/mL) was 3 % of max and the “Percent of maximal response … IP-10” value (gluten-reactive T cells [2]; Subject 3, Max. 9492 pg/mL) was 9 % of max. The “Percent of maximal response … IP-10” value (gluten-reactive T cells [2]; Subject 4, Max. 9463 pg/mL) was 5 % of max, the “Percent of maximal response … IP-10” value (gluten-reactive T cells [2]; Subject 5, Max. 9336 pg/mL) was 4 % of max and the “Percent of maximal response … IP-10” value (gluten-reactive T cells [2]; Subject 6, Max. 5863 pg/mL) was 0 % of max. The “Percent of maximal response … IP-10” value (gluten-reactive T cells [2]; Subject 7, Max. 2330 pg/mL) was 0 % of max, the “Percent of maximal response … IP-10” value (gluten-reactive T cells [2]; Subject 8, Max. 4019 pg/mL) was 0 % of max and the “Percent of maximal response … IP-10” value (gluten-reactive T cells [2]; Subject 9, Max. 8349 pg/mL) was 1 % of max. For the same substance, the “Percent of maximal response … IP-10” value (gluten-reactive T cells [2]; Subject 10, Max. 8922 pg/mL) was 0 % of max, the “IP-10 WB MAGPIX % max Mean” value (gluten-reactive T cells [2]; n = 10, blood after oral gluten challenge, individual peptides 5 μM (Peptide 2* of P14, Pepscan: 10 μg/mL (5.45 μM))) was 3 % max and the “Percent of maximal response to individual gluten peptides, ELISp” value (shortened to “Percent of maximal response … ELISp”) (gluten-reactive T cells [3]; Subject 3, Max. 18 SFU) was 6 % of max. The “Percent of maximal response … ELISp” value (gluten-reactive T cells [3]; Subject 4, Max. 36 SFU) was 0 % of max, the “Percent of maximal response … ELISp” value (gluten-reactive T cells [3]; Subject 8, Max. 17 SFU) was 6 % of max and the “Percent of maximal response … ELISp” value (gluten-reactive T cells [3]; Subject 10, Max. 11 SFU) was 0 % of max. For the same substance, the “IFNγ ELISpot % max Mean” value (gluten-reactive T cells [3]; n = 5, blood after oral gluten challenge, individual peptides 5 μM (Peptide 2* of P14, Pepscan: 10 μg/mL (5.45 μM))) was 3 % max and the “cytokine release / immunogenicity of individual peptide” value (gluten-reactive T cells [4]) was “weak or absent”.
